# Test results taken from patent US20220056019A1, “FARNESOID X RECEPTOR AGONISTS AND USES THEREOF” (Metacrine, Inc., priority 2018, published 2022).
# Biological target: T1, hFXR (Homo sapiens, UniProt Q96RI1)
# T1 construct: expressed in transfected cells; host or cells: CV-1 cells
# T1 sequence (Q96RI1 1-486): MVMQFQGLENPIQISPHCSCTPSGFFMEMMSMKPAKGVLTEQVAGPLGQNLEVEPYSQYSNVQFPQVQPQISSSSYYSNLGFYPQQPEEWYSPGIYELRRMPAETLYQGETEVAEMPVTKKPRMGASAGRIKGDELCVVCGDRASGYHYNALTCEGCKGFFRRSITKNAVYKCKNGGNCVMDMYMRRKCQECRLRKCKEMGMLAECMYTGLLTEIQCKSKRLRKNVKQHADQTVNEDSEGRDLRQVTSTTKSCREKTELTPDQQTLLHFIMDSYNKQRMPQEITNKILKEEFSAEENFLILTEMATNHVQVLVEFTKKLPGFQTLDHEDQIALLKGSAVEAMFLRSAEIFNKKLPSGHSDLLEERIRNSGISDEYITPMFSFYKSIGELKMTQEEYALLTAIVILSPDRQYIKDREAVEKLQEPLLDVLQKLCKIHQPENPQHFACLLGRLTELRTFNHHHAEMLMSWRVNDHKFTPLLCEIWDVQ
# T1 sequence (P19793 1-462 partner): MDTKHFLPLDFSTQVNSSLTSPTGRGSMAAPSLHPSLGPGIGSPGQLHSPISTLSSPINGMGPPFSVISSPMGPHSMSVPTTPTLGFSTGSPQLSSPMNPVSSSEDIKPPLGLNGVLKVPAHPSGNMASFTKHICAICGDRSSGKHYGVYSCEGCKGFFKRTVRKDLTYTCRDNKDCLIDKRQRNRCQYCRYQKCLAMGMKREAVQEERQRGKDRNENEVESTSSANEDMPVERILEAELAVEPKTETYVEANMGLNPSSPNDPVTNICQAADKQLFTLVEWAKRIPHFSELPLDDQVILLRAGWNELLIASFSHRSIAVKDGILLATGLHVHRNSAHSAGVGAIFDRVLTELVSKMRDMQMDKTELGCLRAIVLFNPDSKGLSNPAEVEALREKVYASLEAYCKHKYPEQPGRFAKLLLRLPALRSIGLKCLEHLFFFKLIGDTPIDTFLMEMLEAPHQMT
# Assay: In Vitro FXR Assay (TK): TK-ECRE-luc reporter in transfected CV-1 cells
# Assay type: cell-based
# Details: 18 hrs incubation, luminescence
# Outline: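 Luciferase read-out from lysed CV-1 cells carrying transfected hFXR, hRXR, TK-ECRE-luc and pCMX-YFP. Test compounds, DMSO serial dilutions, were incubated with the cells for 18 h before lysis. Cells grew in charcoal-stripped serum medium.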
row,EC50,SMILES
1,≤ 50 nM,"COc1ccc(C23CCC(CN(c4cc(-n5cnc(C(C)C)c5)ccn4)C(=O)[C@H]4CC[C@H](OC(=O)N5CC(O)C5)CC4)(CC2)CC3)cc1C [Compound 23.13, 4-((4-(4-Isopropyl-1H-imidazol-1-yl)pyridin-2-yl)((4-(4-methoxy-3-methylphenyl)bicyclo[2.2.2]octan-1-yl)methyl)carbamoyl)cyclohexyl trans-3-hydroxyazetidine-1-carboxylate]"
2,≤ 50 nM,"COc1ccc(C23CCC(CN(c4cc(-n5cc(C(C)C)cn5)ccn4)C(=O)[C@H]4CC[C@H](OC(=O)N5CC(O)C5)CC4)(CC2)CC3)cc1C [Compound 23.14, 4-((4-(4-Isopropyl-1H-pyrazol-1-yl)pyridin-2-yl)((4-(4-meth-oxy-3-methylphenyl)bi-cyclo[2.2.2]octan-1-yl)meth-yl)carbamoyl)cyclohexyl trans-3-hydroxyazetidine-1-carboxylate]"
3,≤ 50 nM,"COc1ccc(C23CCC(CN(c4cc(-n5ccc(C(C)C)n5)ccn4)C(=O)[C@H]4CC[C@H](OC(=O)N5CC(O)C5)CC4)(CC2)CC3)cc1C [Compound 23.15, 4-((4-(3-Isopropyl-1H-pyrazol-1-yl)pyridin-2-yl)((4-(4-methoxy-3-methylphenyl)bicyclo[2.2.2]octan-1-yl)methyl)carbamoyl)cyclo-hexyl trans-3-hydroxyazetidine-1-carboxylate]"
4,≤ 50 nM,"COc1ccc(C23CCC(CN(c4cc(-c5ccn(C(C)C)n5)ccn4)C(=O)[C@H]4CC[C@H](OC(=O)N5CC(O)C5)CC4)(CC2)CC3)cc1C [Compound 23.16, 4-((4-(1-Isopropyl-1H-pyrazol-3-yl)pyridin-2-yl)((4-(4-methoxy-3-methylphenyl)bicyclo[2.2.2]octan-1-yl)methyl)carbamoyl)cyclo-hexyl trans-3-hydroxyazetidine-1-carboxylate]"
5,≤ 50 nM,"COc1ccc(C23CCC(CN(c4cc(-c5cnn(C(C)C)c5)ncn4)C(=O)[C@H]4CC[C@H](OC(=O)N5CC(CO)C5)CC4)(CC2)CC3)cc1C [Compound 23.20, 4-((6-(1-Isopropyl-1H-pyrazol-4-yl)pyrimidin-4-yl)((4-(4-methoxy-3-methylphenyl)bi-cyclo[2.2.2]octan-1-yl)methyl)carbamoyl)(trans-cyclohexyl) 3-(hydroxymethyl)azetidine-1-carboxylate]"
6,50 to 1000 nM,"COc1ccc(C23CCC(CN(c4cc(-c5cnn(C(C)C)c5)ncn4)C(=O)[C@H]4CC[C@H](OC(=O)N5CC(C#N)C5)CC4)(CC2)CC3)cc1C [Compound 23.22, 4-((6-(1-Isopropyl-1H-pyrazol-4-yl)pyrimidin-4-yl)((4-(4-methoxy-3-methylphenyl)bi-cyclo[2.2.2]octan-1-yl)methyl)carbamoyl(trans-cyclohexyl) 3-cyanoazetidine-1-carboxylate]"
7,≤ 50 nM,"COc1ccc(C23CCC(CN(c4cccc(-c5cnn(C(C)C)c5)n4)C(=O)[C@H]4CC[C@H](OC(=O)N5CC(O)C5)CC4)(CC2)CC3)cc1C [Compound 23.25, 4-((6-(1-Isopropyl-1H-pyrazol-4-yl)pyridin-2-yl)((4-(4-methoxy-3-methylphenyl)bicyclo[2.2.2]octan-1-yl)methyl)carba-moyl)cyclohexyl trans-3-hydroxy-azetidine-1-carboxylate]"
8,≤ 50 nM,"COc1ccc(C23CCC(CN(c4cncc(-c5cnn(C(C)C)c5)c4)C(=O)[C@H]4CC[C@H](OC(=O)N5CC(O)C5)CC4)(CC2)CC3)cc1C [Compound 25, 4-((5-(1-Isopropyl-1H-pyrazol-4-yl)pyridin-3-yl)((4-(4-methoxy-3-methylphenyl)bicyclo[2.2.2]octan-1-yl)methyl)carbamoyl)cyclohexyl trans-3-hydroxyazetidine-1-carboxylate]"
9,≤ 50 nM,"COc1ccc(C23CCC(CN(c4cccc(-c5cnn(C(C)C)c5)c4)C(=O)[C@H]4CC[C@H](OC(=O)N5CC(O)C5)CC4)(CC2)CC3)cc1C [Compound 25.02, 4-((3-(1-Isopropyl-1H-pyrazol-4-yl)phenyl)((4-(4-methoxy-3-methylphenyl)bicyclo[2.2.2]octan-1-yl)methyl)carbamoyl)cyclohexyl trans-3-hydroxyazetidine-1-carboxylate]"
10,≤ 50 nM,"COc1ccc(C23CCC(CN(c4cc(-c5cnn(C(C)C)c5)ccc4F)C(=O)[C@H]4CC[C@H](OC(=O)N5CC(O)C5)CC4)(CC2)CC3)cc1C [Compound 25.03, 4-((2-Fluoro-5-(1-isopropyl-1H-pyrazol-4-yl)phenyl)((4-(4-methoxy-3-methylphenyl)bicyclo[2.2.2]octan-1-yl)methyl)carbamoyl)cyclohexyl trans-3-hydroxyazetidine-1-carboxylate]"
11,≤ 50 nM,"COc1ccc(C23CCC(CN(c4cccc(-c5cnn(C(C)C)c5)c4F)C(=O)[C@H]4CC[C@H](OC(=O)N5CC(O)C5)CC4)(CC2)CC3)cc1C [Compound 25.04, 4-((2-Fluoro-3-(1-isopropyl-1H-pyrazol-4-yl)phenyl)((4-(4-methoxy-3-methylphenyl)bicyclo[2.2.2]octan-1-yl)methyl)carbamoyl)cyclohexyl trans-3-hydroxyazetidine-1-carboxylate]"

# More lines, now with the values behind:
row,SMILES,EC50
1,"COc1ccc(C23CCC(CN(c4cc(C5CCN(C(C)C)CC5)ccn4)C(=O)[C@H]4CC[C@H](OC(=O)N5CC(O)C5)CC4)(CC2)CC3)cc1C [Compound 23.17, 4-((4-(1-Isopropylpiperidin-4-yl)pyridin-2-yl)((4-(4-methoxy-3-methylphenyl)bicyclo[2.2.2]octan-1-yl)methyl)carbamoyl)cyclo-hexyl trans-3-hydroxyazetidine-1-carboxylate]",50 to 1000 nM
2,"COc1ccc(C23CCC(CN(c4cc(C5CCN(C(C)C)C5)ccn4)C(=O)[C@H]4CC[C@H](OC(=O)N5CC(O)C5)CC4)(CC2)CC3)cc1C (stereo partly drawn) [Compound 23.18, 4-((4-(1-(Isopropylpyrrrolidin-3-yl)pyridin-2-yl)((4-(4-methoxy-3-methylphenyl)bicyclo[2.2.2]octan-1-yl)methyl)carbamoyl)cyclo-hexyl trans-3-hydroxyazetidine-1-carboxylate]",50 to 1000 nM
3,"COc1ccc(C23CCC(CN(c4cc(-c5cnn(C(C)C)c5)ncn4)C(=O)[C@H]4CC[C@H](OC(=O)NCCCO)CC4)(CC2)CC3)cc1C [Compound 23.19, 4-((6-(1-Isopropyl-1H-pyrazol-4-yl)pyrimidin-4-yl)((4-(4-methoxy-3-methylphenyl)bi-cyclo[2.2.2]octan-1-yl)methyl)carbamoyl)(trans-cyclohexyl) (3-hydroxypropyl)carbamate]",≤ 50 nM
4,"COc1ccc(C23CCC(CN(c4cc(-c5cnn(C(C)C)c5)ncn4)C(=O)[C@H]4CC[C@H](OC(=O)N5CC(CS(C)(=O)=O)C5)CC4)(CC2)CC3)cc1C [Compound 23.21, 4-((6-(1-Isopropyl-1H-pyrazol-4-yl)pyrimidin-4-yl)((4-(4-methoxy-3-methylphenyl)bicyclo[2.2.2]octan-1-yl)methyl)carbamoyl)(trans-cyclohexyl) 3-((methylsulfonyl)meth-yl)azetidine-1-carboxylate]",≤ 50 nM
5,"COc1ccc(C23CCC(CN(c4cc(-c5cnn(C6CCC6)c5)ncn4)C(=O)[C@H]4CC[C@H](OC(=O)N5CC(O)C5)CC4)(CC2)CC3)cc1C [Compound 23.23, 4-((6-(1-Cyclobutyl-1H-pyrazol-4-yl)pyrimidin-4-yl)((4-(4-methoxy-3-methylphenyl)bicyclo[2.2.2]octan-1-yl)methyl)carbamoyl)(trans-cyclohexyl) 3-hydroxyazetidine-1-carboxylate]",≤ 50 nM
6,COc1ccc(C23CCC(CN(c4cc(-c5cnn(C6CCC6)c5)ncn4)C(=O)[C@H]4CC[C@H](OC(=O)N5CC(CO)C5)CC4)(CC2)CC3)cc1C [Compound 23.24],≤ 50 nM
7,"COc1ccc(C23CCC(CN(c4cc(-c5cnn(C6(C)CCC6)c5)ccn4)C(=O)[C@H]4CC[C@H](OC(=O)N5CC(O)C5)CC4)(CC2)CC3)cc1C [Compound 24, 4-(((4-(4-Methoxy-3-methylphenyl)bicyclo[2.2.2]octan-1-yl)methyl)(4-(1-(1-methylcyclobutyl)-1H-pyrazol-4-yl)pyridin-2-yl)carbamoyl)cyclohexyl trans-3-hydroxyazetidine-1-carboxylate]",≤ 50 nM
8,"COc1ccc([C@H]2CC[C@](F)(CN(c3cccc(-c4cnn(C(C)C)c4)c3)C(=O)[C@H]3CC[C@H](OC(=O)N4CC(O)C4)CC3)CC2)cc1C [Compound 25.01, 4-((((trans)-1-Fluoro-4-(4-methoxy-3-methylphenyl)cyclohexyl)methyl)(3-(1-isopropyl-1H-pyrazol-4-yl)phenyl)carbamoyl)(trans-cyclohexyl) 3-hydroxyazetidine-1-carboxylate]",≤ 50 nM
